Experiments:
[1] = molecular target: T1, angiotensin II receptor (Oryctolagus cuniculus, UniProt P34976); assay: Antagonism of contraction of rabbit aorta (angiotensin II functional assay, isolated rabbit aorta, pA2); design: species or system rabbit (female New Zealand White); settings: angiotensin II as agonist, 30 minutes incubation with antagonist, Schild analysis, negative logarithm of [A]2
T1 construct: Main abdominal aortas were removed and placed in Krebs-Henseleit buffer at room temperature; from tissue; host or cells: main abdominal aorta rings (3 mm) of female New Zealand White rabbits
T1 sequence (P34976 1-359): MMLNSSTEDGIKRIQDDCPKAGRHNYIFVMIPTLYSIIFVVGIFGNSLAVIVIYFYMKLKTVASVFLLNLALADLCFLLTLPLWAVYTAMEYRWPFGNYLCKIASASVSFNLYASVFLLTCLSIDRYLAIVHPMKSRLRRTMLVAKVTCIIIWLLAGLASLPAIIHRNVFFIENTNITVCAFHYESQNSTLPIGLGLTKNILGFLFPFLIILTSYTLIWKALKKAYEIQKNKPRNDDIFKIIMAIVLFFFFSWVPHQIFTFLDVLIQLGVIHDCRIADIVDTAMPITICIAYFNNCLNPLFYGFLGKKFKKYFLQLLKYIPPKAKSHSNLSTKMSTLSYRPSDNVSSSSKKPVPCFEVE
Description: ANGIOTENSIN II FUNCTIONAL ASSAY: Antagonism of Contraction of Rabbit Aorta
The protocol reported by A. T Chiu and P. Timmermans (P. C. Wong, et al. Hypertension, 13, 489-497 (1989)) was followed with a few modifications. Female New Zealand White rabbits weighing 2-5 kg were sedated with carbon dioxide and then sacrificed. Main abdominal aortas were removed and placed in Krebs-Henseleit buffer at room temperature. […]
______________________________________
Buffer Component mM Concentration
potassium dihydrogen phosphate
sodium bicarbonate 20.00
EDTA* disodium calcium salt
*EDTA = ethylenediamine tetraacetic acid
The buffer contained no cocaine, propanolol or steroid.
The pH of the buffer was 7.40 at 37° C. when saturated with 5%
carbon dioxide/95% oxygen.
The tissues were cleaned of extraneous connective tissue, cut into 3 mm rings, and suspended within a 10 mL tissue bath. All dilutions of peptide preparations were made with 0.3% aqueous BSA. The tissues were primed with 55 mM potassium chloride. Tissues were pre-loaded with 1 g of tension. Tension was recorded on a model 7 Grass polygraph using FT03 transducers. At the end of the equilibrium period, a control cumulative concentration-contractile response curve for angiotensin II (A II: 1×10^-10 -10^-8 M) was obtained. The tissue was washed several times until the baseline was reached. Forty five minutes later, test compound (antagonist) was added and the tissue was incubated for 30 minutes. The concentration-response curve for A II was then repeated in the presence of the test compound. One dose of antagonist was tested per tissue only. For single dose shift experiments a dose of 1 mM of test compound was used, for a full pA2 experiment multiple doses were used depending upon the potency of the antagonist.
All responses to the control agonist were calculated as a percentage of the maximum response. These points in duplicate were plotted and analyzed according to standard Schild analysis (H. O. Schild, British J Pharmacology and Chemotherapy, 2, 189-206 (1947). The pA2 values calculated for the compounds of the invention are shown in Table 6. The pA2 value is the negative logarithm of the [A]2 value. [A]2 is the concentration of antagonist which necessitates doubling the agonist concentration in order to achieve the agonist effect which was measured in the absence of antagonist.
The pA2 value, therefore, is a measure of the effectiveness of the compound as an antagonist.

[2] = tested on: angiotensin receptor; settings: in vivo; cited from earlier work
[3] = peptide; cited from earlier work
[4] = tested on: angiotensin II; settings: background statement; cited from earlier work

Row | Kb [1] [µM] | Compound | other results
1 | 0.105 | CCCCN(Cc1ccc(-c2ccccc2-c2nnn[nH]2)cc1)c1nc(SC)n(C)c1C(=O)OCC [Example 1, Ethyl 4-{N-butyl-N-[(2'-[1H-tetrazol-5-yl]biphenyl-4-yl)methyl]amino}-1-methyl-2-(methylthio)imidazole-5-carboxylate] | –
2 | 0.00631 | CCCCN(Cc1ccc(-c2ccccc2-c2nn[nH]n2)cc1)c1scnc1C(=O)O [Example 3, 5-{N-Butyl-N-[(2'-[1H-tetrazol-5-yl]biphenyl-4-yl)methyl]amino}thiazole-4-carboxylic acid] | –
3 | 0.0871 | CCCCN(Cc1ccc(-c2ccccc2-c2nn[nH]n2)cc1)c1ncn(CC)c1C(=O)OC(C)(C)C [Example 5, tert-Butyl 4-{N-butyl-N-[(2'-[1H-tetrazol-5-yl]biphenyl-4-yl)methyl]amino}-1-(N-ethyl)imidazole-5-carboxylate] | –
4 | 0.00759 | CCCCN(Cc1ccc(-c2ccccc2-c2nn[nH]n2)cc1)c1cn(CC)cn1 [Example 6, 4-{N-Butyl-N-[(2'-[1H-tetrazol-5-yl]biphenyl-4-yl)methyl]amino}-1-(N-ethyl)imidazole] | –
5 | 0.0166 | CCCCN(Cc1ccc(-c2ccccc2-c2nnn[nH]2)cc1)c1snnc1C(=O)OCC [Example 9, Ethyl 5-{N-butyl-N-[(2'-[1H-tetrazol-5-yl]biphenyl-4-yl)methyl]amino}-1,2,3-thiadiazole-4-carboxylate] | –
6 | 0.00437 | CCCCN(Cc1ccc(-c2ccccc2-c2nn[nH]n2)cc1)c1snnc1C(=O)O [Example 10, 5-[N-Butyl-N-[[2'-(1H-tetrazol-5-yl)biphenyl-4-yl]methyl]amino]-1,2,3-thiadiazole-4-carboxylic acid] | –
7 | 0.00295 | CCCCN(Cc1ccc(-c2ccccc2-c2nnn[nH]2)cc1)c1nnc(C(=O)OCC)s1 [Example 11, Ethyl 2-{N-Butyl-N-[(2'-[1H-tetrazol-5-yl]biphenyl-4-yl)methyl]amino}-1,3,4-thiadiazole-5-carboxylate] | –
8 | 0.02 | CCCCN(Cc1ccc(-c2ccccc2-c2nnn[nH]2)cc1)c1nncs1 [Example 12, 2-{N-Butyl-N-[(2'-[1H-tetrazol-5-yl]biphenyl-4-yl)methyl]amino}-1,3,4-thiadiazole] | –
9 | 0.0115 | CCCN(Cc1ccc(-c2ccccc2-c2nn[nH]n2)cc1)c1nn(C)cc1C(=O)O [Example 14, 1-Methyl-3-{N-propyl-N-[(2'-[1H-tetrazol-5-yl]biphenyl-4-yl)methyl]amino}pyrazole-4-carboxylic acid] | –
10 | 0.00166 | CCCCN(Cc1ccc(-c2ccccc2-c2nn[nH]n2)cc1)c1ncc(C(=O)O)s1 [Example 27, 2-{N-Butyl-N-[(2'-[1H-tetrazol-5-yl]biphenyl-4-yl)methyl]amino}thiazole-5-carboxylic acid] | –
11 | 0.0135 | CCCN(Cc1ccc(-c2ccccc2-c2nn[nH]n2)cc1)c1ncc(C(=O)O)s1 [Example 28, 2-{N-Propyl-N-[(2'-[1H-tetrazol-5-yl]biphenyl-4-yl)methyl]amino}thiazole-5-carboxylic acid] | –
12 | 0.00234 | CCCN(Cc1ccc(-c2ccccc2-c2nn[nH]n2)cc1)c1nc(C)c(C(=O)O)s1 [Example 29, 4-Methyl-2-{N-propyl-N-[(2'-[1H-tetrazol-5-yl]biphenyl-4-yl)methyl]amino}thiazole-5-carboxylic acid] | –
13 | 0.0275 | CCCN(Cc1ccc(-c2ccccc2-c2nn[nH]n2)cc1)c1nc(C(F)(F)F)c(C(=O)O)s1 [Example 30, 2-{N-Propyl-N-[(2'-[1H-tetrazol-5-yl]biphenyl-4-yl)methyl]amino}thiazole-4-trifluoromethyl-5-carboxylic acid] | –
14 | 0.0372 | CCCc1nc(N(CCC)Cc2ccc(-c3ccccc3-c3nn[nH]n3)cc2)sc1C(=O)O [Example 31, 2-{N-Propyl-N-[(2'-[1H-tetrazol-5-yl]biphenyl-4-yl)methyl]amino}thiazole-4-propyl-5-carboxylic acid] | –
15 | – | CNCC(=O)N[C@@H](CCCN=C(N)N)C(=O)N[C@H](C(=O)N[C@@H](Cc1ccc(O)cc1)C(=O)N[C@H](C(=O)N[C@@H](Cc1cnc[nH]1)C(=O)N1CCC[C@H]1C(=O)N[C@@H](C)C(=O)O)C(C)C)C(C)C [saralasin, [Sar^1,Ala^8] angiotensin II] | blood pressure after intravenous administration [2]: initial increase in blood pressure after intravenous administration; oral bioavailability [3]: very poor oral bioavailability; antagonist of the actions of angiotensin II [4]: potent antagonist of the actions of angiotensin II
